Experimental data published in patent publication US20160198705A1, “APPLICATION OF BISPHENOL SALT IN PREPARING DISINFECTANT USED FOR STERILIZATION OR FORMALDEHYDE REMOVAL” (NINGBO YUCHEN ENVIROCLEAN TECH CO., LTD., priority 2013, published 2016).

What was measured:
[1] = tested on: Staphylococcus aureus; test: Kirby-Bauer diffusion detection of sterilization capability (zone without bacterial growth around the filter paper); type: cell-based; settings: for sterilization effect without oxygen ventilation (diameter, mm): pH 10, no ventilation of oxygen
[2] = tested on: Staphylococcus aureus; test: as above; type: cell-based
Experimental: In catalyst screening, Staphylococcus aureus was used as the microorganisms, and a trypsin soybean agar was used as a culture medium. The material powder to be screened was prepared into a homogeneous mixture solution by pure water in a 5% weight/volume ratio (i.e., 5 g powder/100 mL water) (in rare cases of low solubility, firstly dissolved with a small amount of glycerol, then diluted with pure water), then immersed with a neutral precise filtration filter paper of 5 mm diameter for about 10 seconds, then placed into a Kirby-Bauer diffusion detection plate. A Kirby-Bauer diffusion detection plate was placed in a sealed glass cover, and the air was provided into the glass cover at a speed of about 10 liters per minute. The sterilizing capability of the catalyst was measured by the diameter of the zone without bacterial growth around the filter paper.
A variety of bisphenol salts were respectively prepared into a water solution with a mass concentration being 5%, and the pH was controlled to 10. The sterilization capability was still detected by Kirby-Bauer diffusion detection method in which Staphylococcus aureus was […] used as the microorganisms, respectively including two cases of no ventilation of oxygen and ventilation of oxygen. When oxygen was ventilated, the condition for oxygen ventilation was the same, the temperature was room temperature (25[…]) and 37[…].
The sterilization capability was detected by Kirby-Bauer diffusion detection method in which Staphylococcus aureus was still used as the microorganisms, and the condition for oxygen ventilation was identical, the temperature was room temperature (25[…]) and 37[…].
Ortho-bisphenol potassium was respectively prepared to form water solutions with a concentration of 5% and pH value of 6, 7, 8, 8.5, 9, 9.5, 10, 10.5, 11, 11.5, 12. The sterilization capability was detected by Kirby-Bauer diffusion detection method in which Staphylococcus aureus was still used as the microorganisms, the condition for oxygen ventilation was identical, the temperature was room temperature (25[…]) and 37[…].

[3] = 5% water solution, pH 10, oxygen ventilation
[4] = 5% weight/volume in pure water, air provided at about 10 liters per minute
[5] = concentration 1.0%, pH 10, oxygen ventilation
[6] = concentration 5%, pH 10, oxygen ventilation
[7] = concentration 10%, pH 10, oxygen ventilation
[8] = pH 6, concentration 5%, oxygen ventilation
[9] = pH 8.5, concentration 5%, oxygen ventilation
[10] = pH 9, concentration 5%, oxygen ventilation
[11] = pH 10, concentration 5%, oxygen ventilation
[12] = concentration 0.5%, pH 10, oxygen ventilation
[13] = concentration 2.0%, pH 10, oxygen ventilation
[14] = concentration 15%, pH 10, oxygen ventilation
[15] = concentration 20%, pH 10, oxygen ventilation
[16] = pH 7, concentration 5%, oxygen ventilation
[17] = pH 8, concentration 5%, oxygen ventilation
[18] = pH 9.5, concentration 5%, oxygen ventilation
[19] = pH 10.5, concentration 5%, oxygen ventilation
[20] = pH 11, concentration 5%, oxygen ventilation
[21] = pH 11.5, concentration 5%, oxygen ventilation
[22] = pH 12, concentration 5%, oxygen ventilation

SMILES: [K+].[K+].[O-]c1cccc(-c2cccc([O-])c2)c1
- sterilization effect without oxygen ventilation (diameter, mm) ([1]; 5% water solution): 2 mm
- sterilization effect at 25[…] (diameter, mm) [1, 3]: 20 mm
- sterilization effect at 37[…] (diameter, mm) [1, 3]: 19 mm

SMILES: O=C(O)c1ccc(-c2ccccc2[O-])c([O-])c1.[K+].[K+]
- sterilization effect without oxygen ventilation (diameter, mm) ([1]; 5% water solution): 2 mm
- sterilization effect at 25[…] (diameter, mm) [1, 3]: 19 mm
- sterilization effect at 37[…] (diameter, mm) [1, 3]: 19 mm

SMILES: [K+].[K+].[O-]c1ccccc1-c1cc(Cl)ccc1[O-]
- sterilization effect without oxygen ventilation (diameter, mm) ([1]; 5% water solution): 3 mm
- sterilization effect at 25[…] (diameter, mm) [1, 3]: 19 mm
- sterilization effect at 37[…] (diameter, mm) [1, 3]: 19 mm

SMILES: [Na+].[Na+].[O-]c1ccccc1Oc1ccccc1[O-]
- sterilization effect without oxygen ventilation (diameter, mm) ([1]; 5% water solution): 5 mm
- sterilization effect at 25[…] (diameter, mm) [1, 3]: 17 mm
- sterilization effect at 37[…] (diameter, mm) [1, 3]: 19 mm

SMILES: [K+].[K+].[O-]c1cccc(Oc2cccc([O-])c2)c1
- sterilization effect without oxygen ventilation (diameter, mm) ([1]; 5% water solution): 6 mm
- sterilization effect at 25[…] (diameter, mm) [1, 3]: 16 mm
- sterilization effect at 37[…] (diameter, mm) [1, 3]: 18 mm

SMILES: [Na+].[Na+].[O-]c1ccccc1-c1ccccc1[O-] [2,2′-ortho-bisphenol sodium]
- inhibition zone diameter [1, 4]: 15 mm

SMILES: [K+].[K+].[O-]c1ccccc1-c1ccccc1[O-] [ortho-bisphenol potassium]
- sterilization effect at 25[…] (diameter, mm) [2, 5]: 11 mm
- sterilization effect at 37[…] (diameter, mm) [2, 6]: 19 mm
- sterilization effect at 25[…] (diameter, mm) [2, 7]: 20 mm
- sterilization effect at 25[…] (diameter, mm) [2, 8]: 5 mm
- sterilization effect at 37[…] (diameter, mm) [2, 9]: 14 mm
- sterilization effect at 25[…] (diameter, mm) [2, 10]: 15 mm
- sterilization effect at 25[…] (diameter, mm) [2, 11]: 19 mm
- sterilization effect at 37[…] (diameter, mm) [2, 11]: 20 mm
- sterilization effect without oxygen ventilation (diameter, mm) ([1]; 5% water solution): 3 mm
- sterilization effect at 25[…] (diameter, mm) [1, 3]: 18 mm
- sterilization effect at 37[…] (diameter, mm) [1, 3]: 19 mm
- sterilization effect at 25[…] (diameter, mm) [1, 12]: 8 mm
- sterilization effect at 37[…] (diameter, mm) [1, 12]: 9 mm
- sterilization effect at 37[…] (diameter, mm) [1, 5]: 10 mm
- sterilization effect at 25[…] (diameter, mm) [1, 13]: 14 mm
- sterilization effect at 37[…] (diameter, mm) [1, 13]: 16 mm
- sterilization effect at 25[…] (diameter, mm) [1, 6]: 18 mm
- sterilization effect at 37[…] (diameter, mm) [1, 7]: 20 mm
- sterilization effect at 25[…] (diameter, mm) [1, 14]: 19 mm
- sterilization effect at 37[…] (diameter, mm) [1, 14]: 18 mm
- sterilization effect at 25[…] (diameter, mm) [1, 15]: 17 mm
- sterilization effect at 37[…] (diameter, mm) [1, 15]: 19 mm
- sterilization effect at 37[…] (diameter, mm) [1, 8]: 5 mm
- sterilization effect at 25[…] (diameter, mm) [1, 16]: 5 mm
- sterilization effect at 37[…] (diameter, mm) [1, 16]: 6 mm
- sterilization effect at 25[…] (diameter, mm) [1, 17]: 8 mm
- sterilization effect at 37[…] (diameter, mm) [1, 17]: 9 mm
- sterilization effect at 25[…] (diameter, mm) [1, 9]: 13 mm
- sterilization effect at 37[…] (diameter, mm) [1, 10]: 16 mm
- sterilization effect at 25[…] (diameter, mm) [1, 18]: 16 mm
- sterilization effect at 37[…] (diameter, mm) [1, 18]: 16 mm
- sterilization effect at 25[…] (diameter, mm) [1, 19]: 18 mm
- sterilization effect at 37[…] (diameter, mm) [1, 19]: 20 mm
- sterilization effect at 25[…] (diameter, mm) [1, 20]: 18 mm
- sterilization effect at 37[…] (diameter, mm) [1, 20]: 19 mm
- sterilization effect at 25[…] (diameter, mm) [1, 21]: 20 mm
- sterilization effect at 37[…] (diameter, mm) [1, 21]: 19 mm
- sterilization effect at 25[…] (diameter, mm) [1, 22]: 20 mm
- sterilization effect at 37[…] (diameter, mm) [1, 22]: 20 mm

SMILES: [Cl-].[Na+] [sodium chloride, reference compound]
- sterilization effect [1, 4]: essentially had no effect

SMILES: O=S(=O)([O-])[O-].[Na+].[Na+] [sulfate sodium, reference compound]
- sterilization effect [1, 4]: essentially had no effect
